PMC4457528, “Identification of Novel Small Molecule Inhibitors of Oncogenic RET Kinase” (PLoS ONE, 2015)
Where two headings read alike, the source gives them in different places.

How the values were obtained:
Test in all cases: KinomeScan kinase panel, single concentration 10 µM
Type in all cases: binding
KinomeScan kinase panel [1] = target: T1, KinomeScan kinase panel (Homo sapiens, UniProt P49759); conditions: CLK1, 10 µM; read-out: score (%)
T1 construct: purchased DiscoveRx (KinomeScan)

KinomeScan kinase panel [2] = target: T2, KinomeScan kinase panel (Homo sapiens, UniProt Q13188); conditions: MST2, 10 µM; read-out: score (%)
T2 construct: purchased DiscoveRx (KinomeScan)
T2 sequence (Q13188 1-491): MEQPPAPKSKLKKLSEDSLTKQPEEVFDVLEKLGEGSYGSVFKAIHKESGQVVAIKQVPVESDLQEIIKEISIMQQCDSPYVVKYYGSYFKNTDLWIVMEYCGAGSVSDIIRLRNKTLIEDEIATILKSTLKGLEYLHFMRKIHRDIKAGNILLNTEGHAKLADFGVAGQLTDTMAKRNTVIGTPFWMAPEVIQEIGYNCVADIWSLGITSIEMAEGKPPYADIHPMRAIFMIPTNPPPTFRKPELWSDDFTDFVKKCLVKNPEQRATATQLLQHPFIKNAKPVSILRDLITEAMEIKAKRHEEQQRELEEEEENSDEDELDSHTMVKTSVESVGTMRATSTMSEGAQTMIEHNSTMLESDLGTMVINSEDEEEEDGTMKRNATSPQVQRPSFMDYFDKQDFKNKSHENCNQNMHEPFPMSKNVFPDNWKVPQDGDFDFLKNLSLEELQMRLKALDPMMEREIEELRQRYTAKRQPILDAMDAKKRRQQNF

KinomeScan kinase panel [3] = target: T3, KinomeScan kinase panel (Homo sapiens, UniProt Q9UKE5); conditions: 10 µM, read-out: score (%)
T3 construct: purchased DiscoveRx (KinomeScan)

KinomeScan kinase panel [4] = target: T4, KinomeScan kinase panel (Homo sapiens, UniProt P36888, D835H); conditions: FLT3(D835H), 10 µM; read-out: score (%)
T4 construct: purchased DiscoveRx (KinomeScan)
T4 sequence (P36888 27-993 D835H): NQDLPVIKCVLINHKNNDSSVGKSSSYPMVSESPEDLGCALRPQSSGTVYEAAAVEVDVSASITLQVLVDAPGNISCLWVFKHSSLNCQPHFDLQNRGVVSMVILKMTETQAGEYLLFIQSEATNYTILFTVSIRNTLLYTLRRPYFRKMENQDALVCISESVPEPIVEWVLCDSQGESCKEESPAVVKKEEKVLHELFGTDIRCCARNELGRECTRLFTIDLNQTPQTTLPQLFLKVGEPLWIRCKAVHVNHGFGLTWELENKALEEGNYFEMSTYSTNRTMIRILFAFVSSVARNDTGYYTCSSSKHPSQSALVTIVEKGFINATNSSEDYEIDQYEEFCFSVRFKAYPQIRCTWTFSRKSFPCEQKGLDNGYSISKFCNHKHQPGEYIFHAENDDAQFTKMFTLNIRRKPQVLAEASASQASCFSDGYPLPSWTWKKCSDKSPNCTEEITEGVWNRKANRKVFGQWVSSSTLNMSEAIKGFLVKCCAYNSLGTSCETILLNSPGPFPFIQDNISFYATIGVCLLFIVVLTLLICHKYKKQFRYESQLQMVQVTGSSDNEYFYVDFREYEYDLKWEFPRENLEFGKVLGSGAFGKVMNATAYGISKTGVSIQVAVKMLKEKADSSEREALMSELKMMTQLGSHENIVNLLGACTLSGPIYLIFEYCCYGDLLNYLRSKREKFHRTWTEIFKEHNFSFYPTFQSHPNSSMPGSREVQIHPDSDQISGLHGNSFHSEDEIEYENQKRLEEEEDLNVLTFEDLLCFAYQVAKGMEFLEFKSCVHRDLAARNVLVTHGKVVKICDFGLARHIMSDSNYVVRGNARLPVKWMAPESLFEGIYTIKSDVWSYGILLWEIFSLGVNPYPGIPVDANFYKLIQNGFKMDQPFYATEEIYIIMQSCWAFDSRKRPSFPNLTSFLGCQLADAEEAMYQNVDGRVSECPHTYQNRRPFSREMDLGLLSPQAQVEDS

KinomeScan kinase panel [5] = target: T5, KinomeScan kinase panel (Homo sapiens, UniProt Q9Y4K4); conditions: MAP4K5, 10 µM; read-out: score (%)
T5 construct: purchased DiscoveRx (KinomeScan)

KinomeScan kinase panel [6] = target: T6, KinomeScan kinase panel (Homo sapiens, UniProt P10721, D816V); conditions: KIT(D816V), 10 µM; read-out: score (%)
T6 construct: purchased DiscoveRx (KinomeScan)

KinomeScan kinase panel [7] = target: T7, KinomeScan kinase panel (Homo sapiens, UniProt Q15746); conditions: MYLK, 10 µM; read-out: score (%)
T7 construct: purchased DiscoveRx (KinomeScan)

KinomeScan kinase panel [8] = target: T8, KinomeScan kinase panel (Homo sapiens, UniProt O15075); conditions: DCAMKL1, 10 µM
T8 construct: purchased DiscoveRx (KinomeScan)

KinomeScan kinase panel [9] = target: T9, KinomeScan kinase panel (Homo sapiens, UniProt Q9HCP0); conditions: CSNK1G1, 10 µM
T9 construct: purchased DiscoveRx (KinomeScan)
T9 sequence (Q9HCP0 whole entry): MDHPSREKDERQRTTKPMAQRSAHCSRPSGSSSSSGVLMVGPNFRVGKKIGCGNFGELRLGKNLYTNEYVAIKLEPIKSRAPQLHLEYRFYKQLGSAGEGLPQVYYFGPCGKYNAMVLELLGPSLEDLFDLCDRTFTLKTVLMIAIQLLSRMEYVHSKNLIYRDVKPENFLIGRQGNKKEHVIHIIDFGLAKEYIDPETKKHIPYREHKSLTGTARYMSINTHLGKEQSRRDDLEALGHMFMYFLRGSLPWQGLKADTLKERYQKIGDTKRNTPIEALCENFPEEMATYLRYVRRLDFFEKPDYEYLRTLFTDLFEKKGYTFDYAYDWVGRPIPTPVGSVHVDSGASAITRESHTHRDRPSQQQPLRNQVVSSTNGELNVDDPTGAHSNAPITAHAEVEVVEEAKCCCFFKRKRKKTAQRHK

T3 sequence (Q9UKE5 whole entry): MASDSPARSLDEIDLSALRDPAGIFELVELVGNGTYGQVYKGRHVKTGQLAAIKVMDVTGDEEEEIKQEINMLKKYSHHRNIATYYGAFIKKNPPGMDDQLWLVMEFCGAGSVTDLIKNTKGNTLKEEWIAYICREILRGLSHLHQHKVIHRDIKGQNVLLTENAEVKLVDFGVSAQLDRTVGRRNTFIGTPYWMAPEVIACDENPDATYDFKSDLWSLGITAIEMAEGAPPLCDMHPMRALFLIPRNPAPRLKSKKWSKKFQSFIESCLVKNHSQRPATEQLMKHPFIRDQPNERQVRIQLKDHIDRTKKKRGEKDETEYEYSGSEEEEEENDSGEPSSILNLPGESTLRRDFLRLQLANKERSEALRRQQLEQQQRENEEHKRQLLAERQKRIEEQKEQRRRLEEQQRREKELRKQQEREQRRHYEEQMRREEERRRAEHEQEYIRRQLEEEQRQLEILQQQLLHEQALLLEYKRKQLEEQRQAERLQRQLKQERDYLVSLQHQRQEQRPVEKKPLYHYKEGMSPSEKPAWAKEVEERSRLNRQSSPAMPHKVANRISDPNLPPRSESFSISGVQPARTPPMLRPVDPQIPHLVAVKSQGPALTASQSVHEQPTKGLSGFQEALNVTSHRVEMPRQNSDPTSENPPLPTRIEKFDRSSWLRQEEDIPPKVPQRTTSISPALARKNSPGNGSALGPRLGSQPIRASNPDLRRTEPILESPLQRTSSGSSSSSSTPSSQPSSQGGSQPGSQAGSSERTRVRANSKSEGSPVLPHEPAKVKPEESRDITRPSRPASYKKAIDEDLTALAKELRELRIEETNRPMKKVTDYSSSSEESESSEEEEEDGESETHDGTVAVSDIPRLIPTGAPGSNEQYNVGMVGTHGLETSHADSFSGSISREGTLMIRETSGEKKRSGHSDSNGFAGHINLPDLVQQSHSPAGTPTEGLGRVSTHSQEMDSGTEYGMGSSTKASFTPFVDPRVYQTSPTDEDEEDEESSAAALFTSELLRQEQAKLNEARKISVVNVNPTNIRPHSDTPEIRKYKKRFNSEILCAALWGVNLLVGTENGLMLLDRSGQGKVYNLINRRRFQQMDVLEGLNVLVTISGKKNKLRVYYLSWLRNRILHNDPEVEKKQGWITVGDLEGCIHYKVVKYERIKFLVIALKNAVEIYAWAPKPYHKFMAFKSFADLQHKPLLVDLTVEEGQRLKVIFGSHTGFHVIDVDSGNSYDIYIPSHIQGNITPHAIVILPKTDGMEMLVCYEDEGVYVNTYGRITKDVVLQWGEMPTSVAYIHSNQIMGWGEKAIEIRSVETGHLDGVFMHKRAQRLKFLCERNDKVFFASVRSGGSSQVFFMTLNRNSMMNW
T7 sequence (Q15746 whole entry): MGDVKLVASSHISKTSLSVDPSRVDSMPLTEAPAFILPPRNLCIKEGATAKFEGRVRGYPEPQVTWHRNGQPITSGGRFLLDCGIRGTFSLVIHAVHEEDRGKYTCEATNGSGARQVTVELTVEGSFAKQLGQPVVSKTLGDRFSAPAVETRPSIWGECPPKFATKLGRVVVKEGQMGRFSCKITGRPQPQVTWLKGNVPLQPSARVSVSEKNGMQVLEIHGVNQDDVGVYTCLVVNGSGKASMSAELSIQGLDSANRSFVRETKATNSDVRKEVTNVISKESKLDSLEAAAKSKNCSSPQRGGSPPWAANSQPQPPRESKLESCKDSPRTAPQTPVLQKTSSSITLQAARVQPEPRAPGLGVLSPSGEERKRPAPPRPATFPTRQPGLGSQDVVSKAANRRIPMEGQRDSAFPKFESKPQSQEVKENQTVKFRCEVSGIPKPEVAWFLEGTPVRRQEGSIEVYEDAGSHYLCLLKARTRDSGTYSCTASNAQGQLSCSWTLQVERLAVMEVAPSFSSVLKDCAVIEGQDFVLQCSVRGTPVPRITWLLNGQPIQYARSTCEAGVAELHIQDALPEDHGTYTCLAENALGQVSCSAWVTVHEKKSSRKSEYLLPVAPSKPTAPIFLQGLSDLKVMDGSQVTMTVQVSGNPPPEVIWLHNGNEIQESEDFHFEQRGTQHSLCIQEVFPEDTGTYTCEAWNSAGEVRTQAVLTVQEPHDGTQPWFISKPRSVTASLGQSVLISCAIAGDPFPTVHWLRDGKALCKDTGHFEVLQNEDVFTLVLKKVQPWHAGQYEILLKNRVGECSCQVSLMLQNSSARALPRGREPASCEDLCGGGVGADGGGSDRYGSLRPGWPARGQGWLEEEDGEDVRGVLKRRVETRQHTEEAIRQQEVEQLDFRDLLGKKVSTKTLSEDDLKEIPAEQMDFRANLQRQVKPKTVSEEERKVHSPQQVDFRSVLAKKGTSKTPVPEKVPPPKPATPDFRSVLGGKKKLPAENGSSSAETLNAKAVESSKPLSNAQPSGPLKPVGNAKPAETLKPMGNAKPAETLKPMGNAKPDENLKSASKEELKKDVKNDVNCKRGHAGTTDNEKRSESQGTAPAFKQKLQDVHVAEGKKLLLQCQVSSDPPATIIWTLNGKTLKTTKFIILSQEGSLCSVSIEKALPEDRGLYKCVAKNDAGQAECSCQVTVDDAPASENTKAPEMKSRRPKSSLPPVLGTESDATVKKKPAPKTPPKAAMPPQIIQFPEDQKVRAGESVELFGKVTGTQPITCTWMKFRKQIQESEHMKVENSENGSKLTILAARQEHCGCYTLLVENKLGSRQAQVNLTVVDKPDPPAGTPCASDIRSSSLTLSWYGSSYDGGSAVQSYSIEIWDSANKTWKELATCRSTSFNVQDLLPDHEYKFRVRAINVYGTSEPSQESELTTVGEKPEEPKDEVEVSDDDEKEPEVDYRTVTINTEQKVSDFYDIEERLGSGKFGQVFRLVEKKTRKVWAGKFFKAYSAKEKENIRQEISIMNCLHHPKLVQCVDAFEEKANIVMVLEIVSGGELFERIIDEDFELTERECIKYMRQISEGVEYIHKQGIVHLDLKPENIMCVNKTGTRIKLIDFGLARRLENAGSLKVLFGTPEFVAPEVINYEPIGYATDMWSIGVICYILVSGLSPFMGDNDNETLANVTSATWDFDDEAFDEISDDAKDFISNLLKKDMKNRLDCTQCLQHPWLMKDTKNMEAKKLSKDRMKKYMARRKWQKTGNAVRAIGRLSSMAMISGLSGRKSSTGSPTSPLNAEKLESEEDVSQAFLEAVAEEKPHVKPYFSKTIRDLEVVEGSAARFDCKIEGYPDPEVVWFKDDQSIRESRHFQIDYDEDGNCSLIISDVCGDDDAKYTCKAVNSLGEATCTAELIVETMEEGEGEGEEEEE
T6 sequence (P10721 26-976 D816V): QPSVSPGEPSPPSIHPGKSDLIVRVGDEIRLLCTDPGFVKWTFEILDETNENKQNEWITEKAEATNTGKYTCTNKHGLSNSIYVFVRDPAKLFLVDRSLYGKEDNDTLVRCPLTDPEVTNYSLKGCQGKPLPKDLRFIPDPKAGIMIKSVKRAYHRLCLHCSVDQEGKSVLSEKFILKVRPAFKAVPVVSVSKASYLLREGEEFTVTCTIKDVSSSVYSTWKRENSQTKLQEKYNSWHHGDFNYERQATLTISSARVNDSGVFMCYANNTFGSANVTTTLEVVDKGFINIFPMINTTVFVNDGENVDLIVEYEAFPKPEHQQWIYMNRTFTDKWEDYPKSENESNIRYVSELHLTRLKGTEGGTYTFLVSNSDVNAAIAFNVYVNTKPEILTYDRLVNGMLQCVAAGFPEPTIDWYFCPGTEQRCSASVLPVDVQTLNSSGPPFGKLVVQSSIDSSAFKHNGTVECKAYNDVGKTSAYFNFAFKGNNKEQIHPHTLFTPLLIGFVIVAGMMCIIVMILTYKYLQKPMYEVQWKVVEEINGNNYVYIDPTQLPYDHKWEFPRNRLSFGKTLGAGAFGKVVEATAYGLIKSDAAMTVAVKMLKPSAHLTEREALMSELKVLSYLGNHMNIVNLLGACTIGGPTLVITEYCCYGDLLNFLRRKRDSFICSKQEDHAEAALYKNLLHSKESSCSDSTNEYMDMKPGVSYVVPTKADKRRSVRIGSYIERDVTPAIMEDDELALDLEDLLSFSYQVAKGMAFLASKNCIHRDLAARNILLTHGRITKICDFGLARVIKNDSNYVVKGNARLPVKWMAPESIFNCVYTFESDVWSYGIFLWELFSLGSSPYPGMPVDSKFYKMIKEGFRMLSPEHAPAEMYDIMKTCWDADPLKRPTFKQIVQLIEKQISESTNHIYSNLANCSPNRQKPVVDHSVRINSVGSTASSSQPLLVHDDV
T1 sequence (P49759 whole entry): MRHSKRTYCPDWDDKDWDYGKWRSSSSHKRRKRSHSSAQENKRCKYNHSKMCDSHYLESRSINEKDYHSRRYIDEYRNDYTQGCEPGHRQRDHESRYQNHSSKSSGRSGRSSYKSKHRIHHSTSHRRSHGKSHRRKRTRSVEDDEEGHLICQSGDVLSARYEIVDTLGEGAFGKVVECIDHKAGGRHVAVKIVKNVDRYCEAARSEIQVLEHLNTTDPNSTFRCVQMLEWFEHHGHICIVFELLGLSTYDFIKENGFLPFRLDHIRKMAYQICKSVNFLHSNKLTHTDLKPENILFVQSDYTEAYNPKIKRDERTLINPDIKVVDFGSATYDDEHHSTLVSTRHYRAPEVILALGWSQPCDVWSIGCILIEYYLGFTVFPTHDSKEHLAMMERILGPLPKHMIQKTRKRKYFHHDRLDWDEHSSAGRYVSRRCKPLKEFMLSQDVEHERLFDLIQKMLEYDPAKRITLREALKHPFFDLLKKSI

`CCN1CCN(Cc2ccc(NC(=O)c3ccc(C)c(NC(=O)c4cncc(-c5cccs5)c4)c3)cc2C(F)(F)F)CC1` [ALW-II-41-27] was tested, and the remaining binding at 10 µM (KinomeScan kinase panel [1]) was 1.1%, the remaining binding at 10 µM (KinomeScan kinase panel [2]) was > 30% and the remaining binding at 10 µM (KinomeScan kinase panel [3]; kinase TNIK) was 11%. It also gave a remaining binding at 10 µM (KinomeScan kinase panel [4]) of 1.4%, a remaining binding at 10 µM (KinomeScan kinase panel [5]) of 0.75% and a remaining binding at 10 µM (KinomeScan kinase panel [6]) of 0.75%. The remaining binding at 10 µM (KinomeScan kinase panel [7]) was > 30%, the “score (%)” value (KinomeScan kinase panel [8]) was “nb (Hits values higher than 30% were considered negative (no binding: nb))” and the “score (%)” value (KinomeScan kinase panel [9]) was “nb (Hits values higher than 30% were considered negative (no binding: nb))”.

With `CCN1CCN(Cc2ccc(NC(=O)c3ccc(C)c(/C=C/c4cnc5[nH]ccc5c4Cl)c3)cc2C(F)(F)F)CC1` [HG-6-63-01, (E)-3-(2-(4-chloro-1H-pyrrolo[2,3-b]pyridin-5-yl)vinyl)-N-(4-((4-ethylpiperazin-1-yl)methyl)-3-(trifluoromethyl)phenyl)-4-methylbenzamide] the remaining binding at 10 µM (KinomeScan kinase panel [1]) was 27%, the remaining binding at 10 µM (KinomeScan kinase panel [2]) was 10% and the remaining binding at 10 µM (KinomeScan kinase panel [3]; TNIK) was 13%. The remaining binding at 10 µM (KinomeScan kinase panel [4]) was 0.1%, the remaining binding at 10 µM (KinomeScan kinase panel [5]) was 1.8% and the remaining binding at 10 µM (KinomeScan kinase panel [6]) was 0.3%. The remaining binding at 10 µM (KinomeScan kinase panel [7]) was > 30%, the “score (%)” value (KinomeScan kinase panel [8]) was “nb (Hits values higher than 30% were considered negative (no binding: nb))” and the “score (%)” value (KinomeScan kinase panel [9]) was “nb (Hits values higher than 30% were considered negative (no binding: nb))”.

In the case of `CCN1CCN(Cc2ccc(NC(=O)c3ccc(C)c(C#Cc4cccnc4)c3)cc2C(F)(F)F)CC1` [XMD15-44], the remaining binding at 10 µM (KinomeScan kinase panel [1]) is reported as 3.9%, the remaining binding at 10 µM (KinomeScan kinase panel [2]) is reported as > 30% and the remaining binding at 10 µM (KinomeScan kinase panel [3]; kinase TNIK) is reported as 1.8%. The remaining binding at 10 µM (KinomeScan kinase panel [4]) was 0.15%, the remaining binding at 10 µM (KinomeScan kinase panel [5]) was 3% and the remaining binding at 10 µM (KinomeScan kinase panel [6]) was 2%. The remaining binding at 10 µM (KinomeScan kinase panel [7]) was > 30%, the “score (%)” value (KinomeScan kinase panel [8]) was “nb (Hits values higher than 30% were considered negative (no binding: nb))” and the “score (%)” value (KinomeScan kinase panel [9]) was “nb (Hits values higher than 30% were considered negative (no binding: nb))”.
